Experimental data reported in the supplement of paper PMC10307832.

Tests used:
Test in all cases: relative viability (nuclei count vs DMSO), 5 days (fraction); higher = more cells survive
[1] = compound: C/C(=N\NC(=S)N1CCC1)/C2=CC=CC=N2 + CC(=O)Nc1cccc(-n2c(=O)n(C3CC3)c(=O)c3c(Nc4ccc(I)cc4F)n(C)c(=O)c(C)c32)c1 [Trametinib] (partner 0.02 µM)
In short: (§1)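 One day after seeding in 1536-well plates, lung cancer cell lines were dosed by pin tool. Dosing was either single-drug or a fixed anchor-drug dose plus five library-drug doses (not always all listed) in √10 steps. After 5 days, nuclei were stained in one fix-and-stain step and counted on 4× images, and relative viability is the nuclei count of treated wells over that of vehicle wells, given as the median of duplicate plates.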

[2] = compound: C/C(=N\NC(=S)N1CCC1)/C2=CC=CC=N2 + CC1(C)CCC(c2ccc(Cl)cc2)=C(CN2CCN(c3ccc(C(=O)NS(=O)(=O)c4ccc(N[C@H](CCN5CCOCC5)CSc5ccccc5)c(S(=O)(=O)C(F)(F)F)c4)cc3)CC2)C1 [Navitoclax] (partner 0.5 µM)
In short: as §1

[3] = compound: C/C(=N\NC(=S)N1CCC1)/C2=CC=CC=N2 + N=C(N)NC(=N)NCCc1ccccc1 [Phenformin] (partner 250 µM)
In short: as §1

[4] = compound: C/C(=N\NC(=S)N1CCC1)/C2=CC=CC=N2 + Nc1nc2[nH]cc(CCc3ccc(C(=O)N[C@@H](CCC(=O)O)C(=O)O)cc3)c2c(=O)[nH]1 [Pemetrexed] (partner 0.2 µM)
In short: as §1

Cell Line | relative viability ([1]; first compound 0.05 µM) | relative viability ([1]; first compound 0.1581 µM) | relative viability ([1]; first compound 0.5 µM) | relative viability ([1]; first compound 1.581 µM) | relative viability ([1]; first compound 5 µM) | relative viability ([2]; first compound 0.05 µM) | relative viability ([2]; first compound 0.1581 µM) | relative viability ([2]; first compound 0.5 µM) | relative viability ([2]; first compound 1.581 µM) | relative viability ([2]; first compound 5 µM) | relative viability ([3]; first compound 0.05 µM) | relative viability ([3]; first compound 0.1581 µM) | relative viability ([3]; first compound 0.5 µM) | relative viability ([3]; first compound 1.581 µM) | relative viability ([3]; first compound 5 µM) | relative viability ([4]; first compound 0.05 µM) | relative viability ([4]; first compound 0.1581 µM) | relative viability ([4]; first compound 0.5 µM) | relative viability ([4]; first compound 1.581 µM) | relative viability ([4]; first compound 5 µM)
NCI-H441 | 0.143 | 0.173 | 0.154 | 0.11 | 0.131 | 0.374 | 0.188 | 0.205 | 0.174 | 0.15 | 0.204 | 0.16 | 0.197 | 0.156 | 0.187 | 0.16 | 0.162 | 0.129 | 0.154 | 0.118
NCI-H1793 | 0.308 | 0.188 | 0.166 | 0.142 | 0.179 | 0.225 | 0.208 | 0.19 | 0.149 | 0.225 | 0.131 | 0.201 | 0.188 | 0.147 | 0.156 | 0.158 | 0.162 | 0.151 | 0.112 | 0.136
NCI-H23 | 0.119 | 0.137 | 0.121 | 0.0972 | 0.128 | 0.139 | 0.186 | 0.117 | 0.135 | 0.171 | 0.144 | 0.164 | 0.185 | 0.117 | 0.139 | 0.16 | 0.175 | 0.203 | 0.137 | 0.19
HARA | 0.322 | 0.11 | 0.193 | 0.109 | 0.102 | 0.361 | 0.165 | 0.212 | 0.124 | 0.11 | 0.0726 | 0.0701 | 0.0872 | 0.047 | 0.0649 | 0.218 | 0.174 | 0.212 | 0.141 | 0.165
NCI-H1792 | 0.415 | 0.101 | 0.0783 | 0.0869 | 0.0954 | 0.256 | 0.274 | 0.127 | 0.0935 | 0.084 | 0.122 | 0.096 | 0.108 | 0.063 | 0.0674 | 0.126 | 0.0786 | 0.0748 | 0.0765 | 0.0786
NCI-H1703 | – | – | – | – | – | 0.124 | 0.134 | 0.156 | 0.124 | 0.122 | – | – | – | – | – | – | – | – | – | –
NCI-H2342 | 0.249 | 0.303 | 0.227 | 0.253 | 0.272 | – | – | – | – | – | 0.25 | 0.232 | 0.266 | 0.231 | 0.25 | 0.262 | 0.288 | 0.277 | 0.259 | 0.251
CAL-12T | 0.0974 | 0.126 | 0.163 | 0.135 | 0.122 | 0.168 | 0.139 | 0.171 | 0.144 | 0.118 | 0.171 | 0.15 | 0.136 | 0.112 | 0.101 | 0.14 | 0.132 | 0.173 | 0.143 | 0.122
NCI-H727 | 0.361 | 0.33 | 0.358 | 0.367 | 0.318 | 0.109 | 0.0812 | 0.098 | 0.189 | 0.257 | 0.29 | 0.314 | 0.341 | 0.375 | 0.382 | – | – | – | – | –
NCI-H2085 | 0.183 | 0.19 | 0.216 | 0.153 | 0.224 | 0.246 | 0.248 | 0.245 | 0.248 | 0.281 | 0.198 | 0.297 | 0.243 | 0.178 | 0.239 | 0.248 | 0.264 | 0.237 | 0.178 | 0.244
NCI-H1395 | 0.425 | 0.388 | 0.327 | 0.381 | 0.389 | 0.4 | 0.346 | 0.365 | 0.338 | 0.352 | 0.279 | 0.349 | 0.364 | 0.307 | 0.389 | 0.313 | 0.402 | 0.322 | 0.32 | 0.348
NCI-H1648 | 0.408 | 0.403 | 0.289 | 0.302 | 0.31 | – | – | – | – | – | – | – | – | – | – | 0.258 | 0.323 | 0.329 | 0.274 | 0.311
NCI-H460 | 0.0177 | 0.0199 | 0.0221 | 0.0121 | 0.0173 | 0.0277 | 0.0183 | 0.0198 | 0.0147 | 0.0062 | 0.0303 | 0.0322 | 0.0348 | 0.0156 | 0.0113 | 0.0583 | 0.0469 | 0.0644 | 0.0399 | 0.014
A549 | – | – | – | – | – | 0.0538 | 0.0583 | 0.05 | 0.0608 | 0.0344 | 0.0324 | 0.034 | 0.0226 | 0.0286 | 0.0232 | – | – | – | – | –
IA-LM | – | – | – | – | – | 0.0776 | 0.062 | 0.0799 | 0.0503 | 0.0417 | – | – | – | – | – | – | – | – | – | –
EKVX | 0.104 | 0.124 | 0.114 | 0.151 | 0.136 | 0.127 | 0.131 | 0.119 | 0.132 | 0.137 | 0.14 | 0.132 | 0.167 | 0.161 | 0.23 | 0.148 | 0.163 | 0.0961 | 0.166 | 0.175
ChaGo-K-1 | 0.147 | 0.391 | 0.15 | 0.133 | 0.152 | 0.293 | 0.47 | 0.27 | 0.218 | 0.374 | 0.176 | 0.194 | 0.188 | 0.152 | 0.174 | 0.172 | 0.171 | 0.18 | 0.161 | 0.162
NCI-H1755 | 0.551 | 0.734 | 0.254 | 0.284 | 0.298 | 0.321 | 0.928 | 0.142 | 0.18 | 0.186 | 0.328 | 0.311 | 0.288 | 0.33 | 0.271 | 0.394 | 0.302 | 0.273 | 0.31 | 0.292
NCI-H2228 | 0.124 | 0.151 | 0.137 | 0.0911 | 0.135 | 0.181 | 0.132 | 0.13 | 0.117 | 0.123 | 0.127 | 0.158 | 0.172 | – | 0.111 | 0.107 | 0.147 | 0.116 | 0.0863 | 0.121
